Laboratory results reported in patent US20090136579A1, “Nanoparticles Comprising a PDGF Receptor Tyrosine Kinase Inhibitor” (priority 2006, published 2009).
Entries after “also recorded” stand apart in the source; their conditions may differ. Like-named read-outs stand apart in the source and are kept apart here.

Assays:
[1] = system: rabbit vein graft; assay: Rabbit vein graft failure model (vein autograft implanted into carotid artery); type: in vivo; conditions: graft treated for 30 min, Imatinib 10% w/v; 4 weeks
From the text: A rabbit vein autograft is implanted into a carotid artery to prepare a rabbit vein graft failure model. In this model, a lumen stenosis due to neointimal formation develops after 4 weeks.

[2] = system: Human coronary artery arterial vascular SMCs; conditions: for inhibition of PDGF-BB induced SMC proliferation, dose dependence: free Imatinib 0.1, 1, 10 μM, PDGF-BB 10 ng/ml
Description: Human coronary artery arterial vascular SMCs (Cambrex Bio Science Walkersville, Inc) are seeded on 48-well culture plates (FALCON 354506 BIOCOAT CELL WARE Human Fibronectin) at 5×10^3 cells per well (n=6 per group) in SM-BM with 10% FBS. After 24 hours, the cells are starved for 72 hours in serum free medium to obtain quiescent non-dividing cells. After starvation, recombinant PDGF-BB (Sigma) 10 ng/m^1 is added. […] These wells are washed with PBS before PDGF stimulation. Four days later, the cells are fixed with methanol and stained with Diff-Quick staining solution (Baxter). A single observer who is blinded the experimental protocol counted the number of cells/plate under a microscope for quantification of SMC proliferation.

[3] = system: Rat aortic SMCs; conditions: for inhibition of PDGF-BB induced SMC migration, dose dependence: free Imatinib 0.1, 1, 10 μM, PDGF-BB 10 ng/ml
Description: Migration of rat aortic SMCs is assessed with a Boyden chamber type cell migration assay kit housing a collagen-precoated polycarbonate membrane with 8.0-μm pores (Chemicon), as we previously described (Ono H, Ichiki T, et al. Arterioscler Thromb Vasc Biol. 2004; 24:1634-9.). SMCs are grown to semiconfluent and then made quiescent in serum free medium for 24 hours before migration. The cells (1×10^5 cells/ml) are added to the upper chamber of the membrane (n=6 per group) and allowed to migrate through the pores. […] These cells are washed with PBS before PDGF stimulation. SMCs are then exposed. to PDGF-BB (10 ng/ml) in the lower chamber for 4 hours, after which non-migrated cells are removed from the upper chamber using a cotton swab. The SMCs that migrate to the lower side of the filter are fixed in methanol, stained with Diff-Quick staining solution (Baxter), and counted under a microscope for quantification of SMC migration.

[4] = listed as non-encapsulated Imatinib
[5] = free Imatinib at 0.1 μM, listed as free Imatinib

Compound: Cc1ccc(NC(=O)c2ccc(CN3CCN(C)CC3)cc2)cc1Nc1nccc(-c2cccnc2)n1 [Imatinib, N-{5-[4-(4-methylpiperazino-methyl)-benzoylamido]-2-methylphenyl}-4-(3-pyridyl)-2-pydmidine-amine]
- neointimal formation of vein graft [1]: No suppression
- inhibition of PDGF-BB induced SMC proliferation, dose dependence [2]: dose-dependently reduces
- inhibition of PDGF-BB induced SMC proliferation, dose dependence ([2]; listed as free Imatinib): dose-dependent manner
- inhibition of PDGF-BB induced SMC proliferation, dose dependence [2, 4]: dose-dependent manner
- effect on PDGF-induced SMC proliferation ([2]; free Imatinib at 0.1 μM): no effect
- effect on PDGF-induced SMC proliferation [2, 5]: no effects
- effect on PDGF-induced SMC proliferation ([2]; free Imatinib at 10 μM): normalizes; also recorded: completely abolishes
- inhibition of PDGF-BB induced SMC migration, dose dependence [3]: dose-dependent inhibitory effect
- inhibition of PDGF-BB induced SMC migration, dose dependence ([3]; listed as free Imatinib): dose-dependent manner
- inhibition of PDGF-BB induced SMC migration, dose dependence [3, 4]: dose-dependent manner
- effect on PDGF-induced SMC migration ([3]; free Imatinib at 0.1 μM): no effect
- effect on PDGF-induced SMC migration [3, 5]: no effects
- effect on PDGF-induced SMC migration ([3]; free Imatinib at 10 μM): normalizes
